Measurements from patent US11844801B2, “Oral compositions of MK2 pathway inhibitor for treatment of immune conditions” (priority 2020, dated 2023).
Blank lines part the entries; values can stand above or below the compound they belong to.

Columns and labels:
[1] = tested on: IL-6; experiment: LPS stimulated IL-6 in differentiated U937 cells (hPBMC), ELISA; type: cell-based; conditions: Homo sapiens, U-937; LPS 0.1 μg/mL, 4 hours
Description: (§1) Therefore, inhibition of the p38 MAP Kinase pathway will lower the inflammatory response by decreasing biosynthesis of pro-inflammatory cytokines. […] The U937 human pre-monocytic cell line was obtained from the American Type Culture Collection (Rockville, MD). These cells were differentiated to a monocytic/macrophage phenotype as described by Burnette (Burnette et al, (2009). […] Differentiated U937 cells (human peripheral blood mononuclear cells (hPBMC)) were seeded into 96-well tissue culture plates (200,000 cells/well) in complete media. […] Culture media was then collected for determination of TNFα, IL-6 or IL-10 levels by ELISA. Cytokine concentrations were extrapolated from recombinant protein standard curves using a four-parameter logistic model and solving for IC50 after iterating to the best least-squares fit.

[2] = tested on: TNFα; experiment: LPS stimulated TNFα in differentiated U937 cells (hPBMC), ELISA; type: cell-based; conditions: Homo sapiens, U-937; LPS 0.1 μg/mL, 4 hours
Description: as §1

[3] = tested on: IL-1β; experiment: LPS stimulated IL-1β in differentiated U937 cells (hPBMC), ELISA; type: cell-based; conditions: Homo sapiens, U-937; LPS 0.1 μg/mL, 4 hours
[4] = Crystal form screen of Compound (P)-I; type: physicochemical; conditions: for Crystal form obtained, EV: evaporation; for Crystal form obtained, RC: rapid cooling 40 to −20° C.; for Crystal form obtained, TC: temperature-cycled slurry 5-40° C.
Description: Water-containing solvents with a variety of water activities (aw)^1 were also included to probe for the formation of hydrates. Temperatures ranging between 40° C. to −20° C.
The screening studies were comprised of the following crystallization modes: • Temperature-cycled ripening of API slurries between 5-40° C. for four days (TC) • Rapid cooling clarified saturated solutions from 40 to −20° C. and holding at −20° C. for three days (RC) • Slow evaporation of clarified solutions at RT over 14 days.

[5] = MTX 7.5 mg single oral dose alone, fasted
[6] = 2-Methoxyethanol:Isopropyl ether (20:80)
[7] = 2-propanol:Water (90:10), water activity 0.65
[8] = 2-propanol:Water (95:5), water activity 0.55
[9] = Acetone:Water (20:80), water activity 0.96
[10] = Acetone:Water (80:20), water activity 0.77
[11] = Acetonitrile:Water (90:10), water activity 0.76
[12] = Methanol:Water (90:10), water activity 0.33
[13] = Methanol:Water (95:5), water activity 0.20
[14] = Tetrahydrofuran::Water (20:80), water activity 0.82

Structure (SMILES): Cc1cnc(-c2ccnc(C(C)(C)O)n2)cc1-n1c(C)cc(OCc2ncc(F)cc2F)c(Cl)c1=O (atropisomer, axis not shown; (M)) [(M)-I, (M)-3-chloro-4-((3,5-difluoropyridin-2-yl)methoxy)-2′-(2-(2-hydroxypropan-2-yl)pyrimidin-4-yl)-5′,6-dimethyl-2H-[1,4′-bipyridin]-2-one]
IC50 [1]: > 10000 µM | IC50 [2]: > 10000 µM | IC50 [3]: > 10000 µM

Structure (SMILES): Cc1cnc(-c2ccnc(C(C)(C)O)n2)cc1-n1c(C)cc(OCc2ncc(F)cc2F)c(Cl)c1=O (single isomer, unassigned) [(P)-I, (P)-3-chloro-4-((3,5-difluoropyridin-2-yl)methoxy)-2′-(2-(2-hydroxypropan-2-yl)pyrimidin-4-yl)-5′,6-dimethyl-2H-[1,4′-bipyridin]-2-one]
IC50 [1]: 0.145 µM | Crystal form obtained, EV ([4]; 1,4-Dioxane): Form A | Crystal form obtained, EV ([4]; 1,4-Dioxane:Water (90:10), water activity 0.70): Form A | Crystal form obtained, EV ([4]; 1-Propanol): Form A | Crystal form obtained, EV ([4]; 2-Butanone): Form A | Crystal form obtained, EV [4, 6]: Form A | Crystal form obtained, EV ([4]; 2-Propanol): Form A | Crystal form obtained, EV [4, 7]: Form A | Crystal form obtained, EV [4, 8]: Form A | Crystal form obtained, EV ([4]; 4-Methyl-2-pentanone): Form A | Crystal form obtained, EV ([4]; Acetone): Form A | Crystal form obtained, EV [4, 9]: Form A | Crystal form obtained, EV [4, 10]: Form A | Crystal form obtained, EV ([4]; Acetone:Water (90:10), water activity 0.70): Form A | Crystal form obtained, EV ([4]; Acetonitrile): Form A | Crystal form obtained, EV [4, 11]: Form A | Crystal form obtained, EV ([4]; DMSO:t-butyl methyl ether (20:80)): Form A | Crystal form obtained, EV ([4]; Dichloromethane): Form A | Crystal form obtained, EV ([4]; Dimethyl carbonate): Form A | Crystal form obtained, EV ([4]; Ethanol): Form A | Crystal form obtained, EV ([4]; Ethyl acetate): Form A | Crystal form obtained, EV ([4]; Isopropyl acetate): Form A | Crystal form obtained, EV ([4]; Methanol): Form A | Crystal form obtained, EV [4, 12]: Form A | Crystal form obtained, EV [4, 13]: Form A | Crystal form obtained, EV ([4]; Nitromethane): Form A | Crystal form obtained, EV ([4]; Tetrahydrofuran): Form A | Crystal form obtained, EV [4, 14]: Form A | Crystal form obtained, EV ([4]; Tetrahydrofuran:Water (90:10), water activity 0.83): Form A | Crystal form obtained, EV ([4]; Toluene): Form A | Crystal form obtained, RC [4, 7]: Form A | Crystal form obtained, RC [4, 10]: Form A | Crystal form obtained, RC ([4]; Acetonitrile): Form A | Crystal form obtained, RC [4, 12]: Form A | Crystal form obtained, RC ([4]; Nitromethane): Form A | Crystal form obtained, TC ([4]; 1-Butanol): Form A | Crystal form obtained, TC ([4]; 1-Methoxy-2-propanol:Isopropyl ether (20:80)): Form A | Crystal form obtained, TC [4, 6]: Form A | Crystal form obtained, TC ([4]; 2-Methoxyethyl ether:Heptane (20:80)): Form A | Crystal form obtained, TC ([4]; 2-Propanol): Form A | Crystal form obtained, TC [4, 8]: Form A | Crystal form obtained, TC ([4]; 4-Methyl-2-pentanone): Form A | Crystal form obtained, TC ([4]; 4-Methyl-2-pentanone:heptane (20:80)): Form A | Crystal form obtained, TC [4, 9]: Form A | Crystal form obtained, TC ([4]; Acetonitrile): Form A | Crystal form obtained, TC [4, 11]: Form A | Crystal form obtained, TC ([4]; Acetonitrile:Water (95:5), water activity 0.94): Form A | Crystal form obtained, TC ([4]; Acetonitrile:isopropyl ethyl ether (20:80)): Form A | Crystal form obtained, TC ([4]; Chlorobenzene:Cyclohexane (20:80)): Form A | Crystal form obtained, TC ([4]; Cyclohexane): Form A | Crystal form obtained, TC ([4]; Dimethyl carbonate): Form A | Crystal form obtained, TC ([4]; Ethanol:Water (20:80), water activity 0.93): Form A | Crystal form obtained, TC ([4]; Ethyl acetate:cyclohexane (20:80)): Form A | Crystal form obtained, TC ([4]; Heptane): Form A | Crystal form obtained, TC ([4]; Isopropyl acetate): Form A | Crystal form obtained, TC ([4]; Isopropyl ether): Form A | Crystal form obtained, TC [4, 12]: Form A | Crystal form obtained, TC [4, 13]: Form A | Crystal form obtained, TC ([4]; Methyl acetate:Heptane (20:80)): Form A | Crystal form obtained, TC ([4]; N,N-Dimethylformamide:Water (20:80), water activity 0.95): Form A | Crystal form obtained, TC ([4]; Nitromethane): Form A | Crystal form obtained, TC [4, 14]: Form A | Crystal form obtained, TC ([4]; Toluene): Form A | Crystal form obtained, TC ([4]; Trifluoroethanol:Isopropyl ether (20:80)): Form A | Crystal form obtained, TC ([4]; Water, water activity 1.00): Form A | Crystal form obtained, TC ([4]; t-Butyl methyl ether): Form A | IC50 [2]: 0.004 µM | IC50 [3]: 0.012 µM

AUC0-∞ [5]: 562.2 (102.2) ng · h/mL | Cmax [5]: 163.3 (35.6) ng/mL | Tmax, median (min, max) [5]: 1.0 (0.5, 2.5) h | t1/2 [5]: 3.1 (0.7) h
Structure (SMILES): CN(Cc1cnc2nc(N)nc(N)c2n1)c1ccc(C(=O)N[C@@H](CCC(=O)O)C(=O)O)cc1 [MTX, Methotrexate]
